In patent US4410716A, “Dibenzo[a,d]cycloheptene derivatives and process for production thereof” (Toa Eiyo Kagaku Kogyo Co. Ltd., priority 1979, dated 1983):
Like-named read-outs stand apart in the source and are kept apart here.

Columns and labels:
[1] = tested on: writhing syndromes (acetic acid); test: Analgesic activity: acetic acid writhing in mice; type: in vivo, male ICR mice
Method: (§1) The anti-inflammatory activity, analgesic activity and ulcerogenic activity of the novel dibenzo[a,d]cycloheptene derivatives of this invention were tested by the following methods.
Using male ICR mice weighing 25 to 30 g (10 mice per group), there was measured the number of writhing syndromes induced when a 1% solution of acetic acid was intraperitoneally injected at a dose of 10 ml/kg. The percent inhibition against a control group was calculated.

[2] = tested on: edema (carrageenin, hind paw); test: Anti-inflammatory activity: carrageenin hind paw edema in rats, oral administration; type: in vivo, male Donryu rats; settings: Rattus norvegicus, po; for inhibition in vivo at 1 mg/kg / inhibition in vivo at 5 mg/kg / inhibition in vivo at 10 mg/kg: read-out: Percent edema inhibition
Method: as §1
Each of test compounds was orally administered to groups of male Donryu rats weighing 130 to 150 g (8 to 10 rats per group), and one hour later, 0.1 ml of a 1% carrageenin solution was injected subcutaneously into the hind paw of each rat. After injection of carrageenin, the volume of the paw was measured at predetermined periods, and the percent inhibition against a control group was calculated.

in vivo = settings: rat, in vivo, po
Method: as §1
(§2) Sixteen hours later, the rats were sacrificed under ether anesthesia.
(§3) *Calculated by the Adami's method.
(§4) **Calculated by the LitchfieldWilcoxon's method. The parenthesized values
(§5) show 95% confidence limits.

gastric wall = test: in vivo; settings: for Number of animals with ulcer/number of animals used: 16 hours; for Ulcer index (Mean ± SE): Adami's method
Method: as §1, §2, §3, §4, §5

For `COc1ccc2c(c1)c(CC(=O)O)c(C)n2C(=O)c1ccc(Cl)cc1` [Indomethacin, reference compound], the “Inhibition (writhing)” value ([1]; 1.25 mg/kg) was 27.7%, the “Number of writhing syndromes (Mean ± SE)” value ([1]; 1.25 mg/kg) was 14.6 ± 2.35 and the “Inhibition (writhing)” value ([1]; 2.5 mg/kg) was 40.6%. For the same compound, the “Number of writhing syndromes (Mean ± SE)” value ([1]; 2.5 mg/kg) was 12.0 ± 0.92, the “Inhibition (writhing)” value ([1]; 5.0 mg/kg) was 48.0% and the “Number of writhing syndromes (Mean ± SE)” value ([1]; 5.0 mg/kg) was 10.5 ± 1.40. The “Inhibition (writhing)” value ([1]; 10.0 mg/kg) was 62.4%, the “Number of writhing syndromes (Mean ± SE)” value ([1]; 10.0 mg/kg) was 7.6 ± 1.15 and the “Inhibition (writhing)” value ([1]; 20.0 mg/kg) was 70.3%. The “Number of writhing syndromes (Mean ± SE)” value ([1]; 20.0 mg/kg) was 6.0 ± 0.94, the ED50 ([1]; Mus musculus, po, read-out: ED50 value) was 5 mg/kg and the inhibition in vivo at 1 mg/kg ([2]; 1 h) was 0%. The inhibition in vivo at 5 mg/kg ([2]; 1 h) was 3.9%, the inhibition in vivo at 10 mg/kg ([2]; 1 h) was 37.2% and the inhibition in vivo at 1 mg/kg ([2]; 2 h) was 20.3%. For the same compound, the inhibition in vivo at 5 mg/kg ([2]; 2 h) was 31.1%, the inhibition in vivo at 10 mg/kg ([2]; 2 h) was 45.3% and the ED40 ([2]; 3 h, read-out: ED40 value) was 9.8 mg/kg. For the same compound, the inhibition in vivo at 1 mg/kg ([2]; 3 h) was 6.3%, the inhibition in vivo at 5 mg/kg ([2]; 3 h) was 25.9% and the inhibition in vivo at 10 mg/kg ([2]; 3 h) was 41.8%. It also gave an inhibition in vivo at 1 mg/kg ([2]; 4 h) of 10.2%, an inhibition in vivo at 5 mg/kg ([2]; 4 h) of 31.7% and an inhibition in vivo at 10 mg/kg ([2]; 4 h) of 40.5%. For the same compound, the TD50 at 16 h (in vivo) was 11.7 mg/kg, the selectivity ratio (in vivo) was 1.2 and the “Number of animals with ulcer/number of animals used” value (gastric wall; 3.13 mg/kg oral) was 0/8. The “Ulcer index (Mean ± SE)” value (gastric wall; 3.13 mg/kg oral) was 0, the “Number of animals with ulcer/number of animals used” value (gastric wall; 6.25 mg/kg oral) was 2/8 and the “Ulcer index (Mean ± SE)” value (gastric wall; 6.25 mg/kg oral) was 0.37 ± 0.26. For the same compound, the “Number of animals with ulcer/number of animals used” value (gastric wall; 12.5 mg/kg oral) was 4/8, the “Ulcer index (Mean ± SE)” value (gastric wall; 12.5 mg/kg oral) was 1.38 ± 0.53 and the “Number of animals with ulcer/number of animals used” value (gastric wall; 25.0 mg/kg oral) was 7/8. The “Ulcer index (Mean ± SE)” value (gastric wall; 25.0 mg/kg oral) was 1.88 ± 0.35, the “Number of animals with ulcer/number of animals used” value (gastric wall; 50.0 mg/kg oral) was 8/8 and the “Ulcer index (Mean ± SE)” value (gastric wall; 50.0 mg/kg oral) was 3.12 ± 0.12.
